From patent publication US20210355104A1, “ADENOSINE RECEPTOR BINDING COMPOUNDS” (Nikang Therapeuticsm Inc., priority 2018, published 2021)
Values joined by “and” are separate entries in the source; they are usually repeats but may differ in a detail not shown here. Identical values can stand only once.

These compounds were tested against Adenosine A2A receptor (Homo sapiens, UniProt P29274) (assay: cAMP assay in 293A cells stably expressing the adenosine A2A receptor (CGS21680 stimulation, HTRF)). Details: 293A cells stably expressing A2A receptor; 0.1% BSA; 1 uM CGS21680 stimulation; replicate values separated by /; read-out: cAMP (nM) 0.1% BSA, 1 uM CGS.
Type: cell-based
Design: expressed in transfected cells; host or cells: 293A cells (Invitrogen, Cat# R705-07) infected with A2A-expressing lentivirus (custom packaged by Biosettia), puromycin selected

Adenosine A2A receptor, sequence (P29274 whole entry): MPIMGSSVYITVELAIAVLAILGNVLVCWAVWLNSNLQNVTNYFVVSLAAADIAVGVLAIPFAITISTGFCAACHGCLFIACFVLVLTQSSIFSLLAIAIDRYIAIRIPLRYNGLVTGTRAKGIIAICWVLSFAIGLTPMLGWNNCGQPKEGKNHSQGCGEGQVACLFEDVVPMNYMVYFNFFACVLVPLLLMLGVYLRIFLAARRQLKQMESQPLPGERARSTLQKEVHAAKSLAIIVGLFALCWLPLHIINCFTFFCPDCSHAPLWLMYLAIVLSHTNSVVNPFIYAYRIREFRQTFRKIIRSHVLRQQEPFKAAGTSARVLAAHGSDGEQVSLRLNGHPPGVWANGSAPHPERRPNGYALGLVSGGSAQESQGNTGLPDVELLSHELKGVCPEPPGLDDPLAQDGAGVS

SMILES	IC50
Cc1cc(-c2c(OCc3cccc(C(O)(CCO)CCO)n3)nc(N)nc2-c2ccc(F)cc2)cc(C(F)F)n1 [Example 432, 3-(6-(((2-amino-5-(2-(difluoromethyl)-6-methylpyridin-4-yl)-6-(4-fluorophenyl)pyrimidin-4-yl)oxy)methyl)pyridin-2-yl)pentane-1,3,5-triol]	1260 nM
Cc1cc(-c2c(COc3cccc(C(C)C)n3)nc(N)nc2-c2ccc(F)cc2)cc(C(F)F)n1 [Example 397, 5-(2-(difluoromethyl)-6-methylpyridin-4-yl)-4-(4-fluorophenyl)-6-(((6-isopropylpyridin-2-yl)oxy)methyl)pyrimidin-2-amine]	9.4 nM and 32 nM and 26 nM and 17 nM
Cc1cc(-c2c(OCc3nc(OCC(=O)O)cc4ccccc34)nc(N)nc2-c2ccc(F)cc2)cc(C(F)F)n1 [Example 405, 2-((1-(((2-amino-5-(2-(difluoromethyl)-6-methylpyridin-4-yl)-6-(4-fluorophenyl)pyrimidin-4-yl)oxy)methyl)isoquinolin-3-yl)oxy)acetic acid]	619 nM
Cc1cc(-c2c(OCc3cc(C(C)(C)O)cc(-c4nnn(C)n4)n3)nc(N)nc2-c2ccc(F)cc2)cc(C(F)F)n1 [Example 427, 2-(2-(((2-amino-5-(2-(difluoromethyl)-6-methylpyridin-4-yl)-6-(4-fluorophenyl)pyrimidin-4-yl)oxy)methyl)-6-(2-methyl-2H-tetrazol-5-yl)pyridin-4-yl)propan-2-ol]	5150 nM and 6010 nM
Cc1cc(-c2c(OCc3nc(C(C)(C)O)cc4ccccc34)nc(N)nc2-c2ccc(F)cc2)cc(C(F)F)n1 [Example 404, 2-(1-(((2-amino-5-(2-(difluoromethyl)-6-methylpyridin-4-yl)-6-(4-fluorophenyl)pyrimidin-4-yl)oxy)methyl)isoquinolin-3-yl)propan-2-ol]	1370 nM and 1800 nM
Cc1cc(-c2c(OCc3cccc(CNCC(=O)O)n3)nc(N)nc2-c2ccc(F)cc2)cc(C(F)F)n1 [Example 414, ((6-(((2-amino-5-(2-(difluoromethyl)-6-methylpyridin-4-yl)-6-(4-fluorophenyl)pyrimidin-4-yl)oxy)methyl)pyridin-2-yl)methyl)glycine]	2050 nM

Same assay, conditions: 293A-A2AR cells, 0.1% BSA, 1 uM CGS; read-out: cAMP (nM) 0.1% BSA, 1 uM CGS

SMILES	IC50
CCc1nn(CC)nc1COc1nc(N)nc(-c2cccc(C#N)c2C)c1-c1cc(C)nc(C(F)F)c1 [Example 254, 3-(2-amino-6-((2,5-diethyl-2H-1,2,3-triazol-4-yl)methoxy)-5-(2-(difluoromethyl)-6-methylpyridin-4-yl)pyrimidin-4-yl)-2-methylbenzonitrile]	23500 nM
Cc1cc(-c2c(OCc3ncc(C(C)(O)C(=O)O)n3C)nc(N)nc2-c2ccc(F)cc2)cc(C(F)F)n1 (centres unmarked) [Example 395, 2-(2-(((2-amino-5-(2-(difluoromethyl)-6-methylpyridin-4-yl)-6-(4-fluorophenyl)pyrimidin-4-yl)oxy)methyl)-1-methyl-1H-imidazol-5-yl)-2-hydroxypropanoic acid]	> 50000 nM
CCc1nn(CC(C)(C)C#N)nc1COc1nc(N)nc(-c2ccc(F)cc2)c1-c1cc(C)nc(C(F)F)c1 [Example 324, 3-(4-(((2-amino-5-(2-(difluoromethyl)-6-methylpyridin-4-yl)-6-(4-fluorophenyl)pyrimidin-4-yl)oxy)methyl)-5-ethyl-2H-1,2,3-triazol-2-yl)-2,2-dimethylpropanenitrile]	2080 nM
CCn1cnc(COc2nc(N)nc(-c3cccc(C#N)c3C)c2-c2cc(C)nc(C(F)F)c2)n1 [Example 239, 3-(2-amino-5-(2-(difluoromethyl)-6-methylpyridin-4-yl)-6-((1-ethyl-1H-1,2,4-triazol-3-yl)methoxy)pyrimidin-4-yl)-2-methylbenzonitrile]	7920 nM
Cc1cc(-c2c(OCc3ccnc(N(C)C)n3)nc(N)nc2-c2ccc(F)cc2)cc(C(F)F)n1 [Example 307, 4-(((2-amino-5-(2-(difluoromethyl)-6-methylpyridin-4-yl)-6-(4-fluorophenyl)pyrimidin-4-yl)oxy)methyl)-N,N-dimethylpyrimidin-2-amine]	211 nM and 246 nM
Cc1cc(-c2c(OCc3cccc(N4CC[C@H](C(=O)O)C4)n3)nc(N)nc2-c2ccc(F)cc2)cc(C(F)F)n1 [Example 309, (S)-1-(6-(((2-amino-5-(2-(difluoromethyl)-6-methylpyridin-4-yl)-6-(4-fluorophenyl)pyrimidin-4-yl)oxy)methyl)pyridin-2-yl)pyrrolidine-3-carboxylic acid]	1370 nM
Cc1cc(-c2c(OCc3nnn(CC(C)(C)O)n3)nc(N)nc2-c2ccc(F)cc2)cc(C(F)F)n1 [Example 242, 1-(5-(((2-amino-5-(2-(difluoromethyl)-6-methylpyridin-4-yl)-6-(4-fluorophenyl)pyrimidin-4-yl)oxy)methyl)-2H-tetrazol-2-yl)-2-methylpropan-2-ol]	2020 nM
CCc1nn(CC(C)(C)O)nc1COc1nc(N)nc(-c2ccc(F)cc2)c1-c1cc(C)nc(C(F)F)c1 [Example 251, 1-(4-(((2-amino-5-(2-(difluoromethyl)-6-methylpyridin-4-yl)-6-(4-fluorophenyl)pyrimidin-4-yl)oxy)methyl)-5-ethyl-2H-1,2,3-triazol-2-yl)-2-methylpropan-2-ol]	1280 nM
Cc1cc(-c2c(OCCn3cc(C(=O)O)ccc3=O)nc(N)nc2-c2ccc(F)cc2)cc(C(F)F)n1 [Example 336, 1-(2-((2-amino-5-(2-(difluoromethyl)-6-methylpyridin-4-yl)-6-(4-fluorophenyl)pyrimidin-4-yl)oxy)ethyl)-6-oxo-1,6-dihydropyridine-3-carboxylic acid]	> 25000 nM
Cc1cc(-c2c(OCC3CC(C(=O)O)C3)nc(N)nc2-c2ccc(F)cc2)cc(C(F)F)n1 (centres unmarked) [Example 325, 3-(((2-amino-5-(2-(difluoromethyl)-6-methylpyridin-4-yl)-6-(4-fluorophenyl)pyrimidin-4-yl)oxy)methyl)cyclobutane-1-carboxylic acid]	> 25000 nM
Cc1cc(-c2c(OCc3cn(C(C)(C)C(=O)O)cn3)nc(N)nc2-c2ccc(F)cc2)cc(C(F)F)n1 [Example 387, 2-(4-(((2-amino-5-(2-(difluoromethyl)-6-methylpyridin-4-yl)-6-(4-fluorophenyl)pyrimidin-4-yl)oxy)methyl)-1H-imidazol-1-yl)-2-methylpropanoic acid]	16300 nM
Cc1cc(-c2c(OCCN(C)c3cccc(OCC(=O)O)n3)nc(N)nc2-c2ccc(F)cc2)cc(C(F)F)n1 [Example 248, 2-((6-((2-((2-amino-5-(2-(difluoromethyl)-6-methylpyridin-4-yl)-6-(4-fluorophenyl)pyrimidin-4-yl)oxy)ethyl)(methyl)amino)pyridin-2-yl)oxy)acetic acid]	552 nM and 742 nM and 1100 nM
Cc1cc(-c2c(OCCOc3ncccc3C(=O)O)nc(N)nc2-c2ccc(F)cc2)cc(C(F)F)n1 [Example 337, 2-(2-((2-amino-5-(2-(difluoromethyl)-6-methylpyridin-4-yl)-6-(4-fluorophenyl)pyrimidin-4-yl)oxy)ethoxy)nicotinic acid]	> 25000 nM
CCc1c(COc2nc(N)nc(-c3ccc(F)cc3)c2-c2cc(C)nc(C(F)F)c2)nnn1C[C@H](O)CO [Example 317, (S)-3-(4-(((2-amino-5-(2-(difluoromethyl)-6-methylpyridin-4-yl)-6-(4-fluorophenyl)pyrimidin-4-yl)oxy)methyl)-5-ethyl-1H-1,2,3-triazol-1-yl)propane-1,2-diol]	1430 nM
Cc1cc(-c2c(OCc3ccc(F)c(C(C)(C)C(=O)O)c3)nc(N)nc2-c2ccc(F)cc2)cc(C(F)F)n1 [Example 367, 2-(5-(((2-amino-5-(2-(difluoromethyl)-6-methylpyridin-4-yl)-6-(4-fluorophenyl)pyrimidin-4-yl)oxy)methyl)-2-fluorophenyl)-2-methylpropanoic acid]	11800 nM
Cc1cc(-c2c(OC[C@H]3CC[C@@H](C(=O)O)CC3)nc(N)nc2-c2ccc(F)cc2)cc(C(F)F)n1 [Example 278, (1,4-cis)-4-(((2-amino-5-(2-(difluoromethyl)-6-methylpyridin-4-yl)-6-(4-fluorophenyl)pyrimidin-4-yl)oxy)methyl)cyclohexane-1-carboxylic acid]	19900 nM
CCc1c(COc2nc(N)nc(-c3ccc(F)cc3)c2-c2cc(C)nc(C(F)F)c2)nnn1C[C@@H](O)CO [Example 289, (R)-3-(4-(((2-amino-5-(2-(difluoromethyl)-6-methylpyridin-4-yl)-6-(4-fluorophenyl)pyrimidin-4-yl)oxy)methyl)-5-ethyl-1H-1,2,3-triazol-1-yl)propane-1,2-diol]	2090 nM
CCn1c(COc2nc(N)nc(-c3ccc(F)cc3)c2-c2cc(C)nc(C(F)F)c2)nc2c(C(=O)O)cccc21 [Example 345, 2-(((2-amino-5-(2-(difluoromethyl)-6-methylpyridin-4-yl)-6-(4-fluorophenyl)pyrimidin-4-yl)oxy)methyl)-1-ethyl-1H-benzo[d]imidazole-4-carboxylic acid]	10300 nM
Cc1cc(-c2c(OCc3cc4ccccc4cn3)nc(N)nc2-c2ccc(F)cc2)cc(C(F)F)n1 [Example 382, 5-(2-(difluoromethyl)-6-methylpyridin-4-yl)-4-(4-fluorophenyl)-6-(isoquinolin-3-ylmethoxy)pyrimidin-2-amine]	955 nM
Cc1cc(-c2c(OCc3nnn(CC(C)(C)O)n3)nc(N)nc2-c2ccc(F)cc2)cc(C(F)F)n1 [Example 291, 1-(5-(((2-amino-5-(2-(difluoromethyl)-6-methylpyridin-4-yl)-6-(4-fluorophenyl)pyrimidin-4-yl)oxy)methyl)-2H-tetrazol-2-yl)-2-methylpropan-2-ol]	5490 nM
